Test results reported in article PMC7702137 (2020).

Assays:
[1] = tested on: r(CUG)9 (RNA, repeat) CUGCUGCUGCUGCUGCUGCUGCUGCUG; experiment: SPR single cycle kinetics; conditions: 25 °C
[2] = tested on: r(CCG)9 (RNA, repeat) CCGCCGCCGCCGCCGCCGCCGCCGCCG; experiment: SPR single cycle kinetics; conditions: HBS-EP+ buffer, 25 °C

| K d(app) ([1]; Na+ not printed for the running buffer (HBS-EP+; 500 mM NaCl only for immobilization), apparent, assumed 1:1 binding isotherm, 0.063-1.0 μM) [nM] | binding ([2]; highest concentration tested 1.0 μM) | binding ([1]; HBS-EP+ buffer, 6.3-100 nM, significant response from 6.3 nM, not fitted) | binding ([2]; highest concentration tested 0.1 μM) | Structure (SMILES) |
| --- | --- | --- | --- | --- |
| 1200 | weak |  |  | NCCCNc1nc(NC(=O)OCCCN)cc2c(-c3ccnc(N4CCNCC4)c3)cccc12 |
|  |  | yes | weak | NCCCNc1nc(NC(=O)OCCCNC(=O)CCNCCC(=O)NCCCOC(=O)Nc2cc3c(-c4ccnc(N5CCNCC5)c4)cccc3c(NCCCN)n2)cc2c(-c3ccnc(N4CCNCC4)c3)cccc12 |
